Data taken from patent US11285132B2, “Uses of indolinone compounds” (Oncternal Therapeutics, Inc., priority 2016, dated 2022).

How the values were obtained:
EWS-FLI1 = target: T1, EWS-FLI1 (Homo sapiens, UniProt Q01543+Q01844); test: EWS-FLI1 / NROB1 reporter-luciferase transcription in COS7 cells; assay type: cell-based; conditions: COS7 cells transfected with a EWS-FLI1 responsive promoter; read-out: EC50, transcriptional decrease
T1 construct: EWS (part of EWSR1, Q01844); expressed in transfected cells; host or cells: COS7
T1 sequence (Q01543 220-452 limits assumed, one chain of several): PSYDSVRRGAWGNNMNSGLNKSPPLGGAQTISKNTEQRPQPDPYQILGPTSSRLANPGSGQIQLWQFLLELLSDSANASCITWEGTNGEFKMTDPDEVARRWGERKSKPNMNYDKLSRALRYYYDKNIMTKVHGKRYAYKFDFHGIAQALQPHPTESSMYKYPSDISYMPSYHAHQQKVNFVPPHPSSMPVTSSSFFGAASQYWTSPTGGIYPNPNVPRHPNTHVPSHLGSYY
Excerpt: (§1) TK216 is a first in class, small molecule that directly binds EWS-FLI1 inhibiting the biological activity of ETS-family transcription factor oncoproteins and is currently under clinical investigation in patients with Ewing sarcoma.
TK216 reduced transcriptional activity in COS7 cells co-transfected with EWS-FLI1 and NROB1 reporter-luciferase plasmids which contain EWS-FLI1 DNA-binding sites, as shown in FIG. 3.

[1] = test system: EWS-FLI1 and RNA helicase A; test: EWS-FLI1 protein interaction (FLI1 immunoprecipitation in A4573); assay type: binding; conditions: preclinical potency model
Excerpt: as §1
FLI1 was immunoprecipitated following treatment with TK216 or DMSO control in A4573 (see FIG. 2).

HL-60 = test: 72 hr CellTiter-Glo, AML cell line; assay type: cell-based; conditions: Homo sapiens
ML-2 = test: 72 hr CellTiter-Glo, AML cell line; assay type: cell-based; conditions: Homo sapiens
MOLM-13 = test: 72 hr CellTiter-Glo, AML cell line; assay type: cell-based; conditions: Homo sapiens
MOLM-16 = test: 72 hr CellTiter-Glo, AML cell line; assay type: cell-based; conditions: MOLM16
THP-1 = test: 72 hr CellTiter-Glo, AML cell line; assay type: cell-based; conditions: Homo sapiens
HBL-1 = test: 72 hr CellTiter-Glo, DLBCL cell line; assay type: cell-based; conditions: HBL1
U2932 = test: 72 hr CellTiter-Glo, DLBCL cell line; assay type: cell-based; conditions: Homo sapiens
OCI-Ly18 = test: 72 hr CellTiter-Glo, DLBCL cell line; assay type: cell-based; conditions: Homo sapiens
OCI-Ly19 = test: 72 hr CellTiter-Glo, DLBCL cell line; assay type: cell-based; conditions: Homo sapiens
DLBCL cell lines = test: Apoptosis by cleaved-Caspase 3 detection; assay type: cell-based; conditions: various concentrations, 18 h
Protocol: Cells were treated with various concentrations of TK216 for 18 h and apoptosis was assessed by detection of cleaved-Caspase 3.

56 lymphoma cell lines = test: MTT proliferation, 56 lymphoma cell lines, 72 h; assay type: cell-based; conditions: 95% C.I.: 367-506, read-out: median IC50
Protocol: (§2) 56 lymphoma cell lines [27 diffuse large B cell lymphoma (DLBCL); 10 mantle cell lymphoma; 6 marginal zone lymphoma; 5 anaplastic large T-cell lymphoma; 8 others] were exposed to TK-216 increasing doses for 72 h using a Tecan D300e Digital Dispenser and 384 well plates. Cell proliferation was measured with MTT. In vivo study was done in NOD-SCID mice; treatments were started with approximately sc 60 mm3 tumor volumes. Sensitivity was not affected by the lymphoma cell of origin (B vs T; activated B cell type DLBCL versus germinal center type DLBCL) or MYC and TP53 status. There was a non-statistically significant trend for lower sensitivity in cell lines bearing BCL2 chromosomal translocation (P=0.07, DLBCL only; P=0.06, all cell lines).

[2] = test system: 6 DLBCL cell lines (TMD8, U2932, HBL1, OCI-LY-18, WSU-DLCL2, DOHH2); test: Cell cycle analysis and Annexin V staining; assay type: cell-based; conditions: 24, 48, 72 h
Protocol: FIGS. 18A and 18B show apoptosis and cell cycle distribution of TK-216 in DLBCL cell lines. FIG. 18A) Induction of apoptosis in DLBCL cell lines exposed to TK-216 (500 nM) for 24, 48 or 72 hrs. In the figures are shown four representative (two ABC and two GCB) results. FIG. 18B) Cell cycle distribution in DLBCL cell lines treated with 500 nM of TK-216 for 24, 48 or 72 hrs. In the figure, two representative (one ABC and one GCB) results are shown. DMSO treatment was used as a control.
as §2

TMD8 cells xenografts = test: TMD8 ABC-DLBCL xenograft in NOD-SCID mice; assay type: in vivo; conditions: 100 mg/Kg, BID
Protocol: NOD-Scid mice subcutaneously inoculated with TMD8 cells (15×10^6) were split in two groups respectively treated with TK-216 (100 mg/kg, BID, po, n=9) and control vehicle (n=10). In each box-plot, the line in the middle of the box represents the median and the box extends from the 25th to the 75th percentile (interquartile range, IQ); the whiskers extend to the upper and lower adjacent values (i.e., ±1.5 IQ).
as §2
The latter synergism could be linked to the previously mentioned negative trend between TK-216 IC50 values and the presence of BCL2 translocation.
(§3) Cell lines were exposed to YK-4-279 or TK-216, alone or in combination with other compounds, for 72 h using a Tecan D300e Digital Dispenser and 96 well plates. Cell proliferation was measured with MTT. Synergy was determined with the Chou-Talalay combination index. Gene expression profiling (GEP) was performed with the Illumina HumanHT 12 Expression BeadChips. In vivo studies were done in NOD-SCID mice and treatments started with 60 mm3 tumor volumes sc.

two MCL cell lines = test: Combination with lenalidomide in MCL cell lines; assay type: cell-based
Protocol: as §3
Since lenalidomide is active in mantle cell lymphoma (MCL), the synergism of the combination of TK-216 and lenalidomide was confirmed also in two MCL cell lines.

IRF4 = test: Protein levels in cells; assay type: cell-based; conditions: similarly to lenalidomide
Excerpt: (§4) With the aim to understand the mechanism of action of YK-4-279 and TK-216, the baseline RNA expression levels of the different ETS factors were correlated with sensitivity to the drugs. SPIB was the gene presenting the most significant negative correlation with both YK-4-279 and TK-216, especially among the ABC DLBCL cell lines (P<0.05). SPIB is a known oncogene for ABC DLBCL (Lenz et al, PNAS 2008) and is involved in the response to lenalidomide in ABC DLBCL (Yang et al, Cancer Cell 2012). YK-4-279 inhibits the binding of EWS1-FLI1 to the helicases RHA and DDX5 (Selvanathan et al, PNAS 2012). Thus, it was assessed whether YK-4-279 and TK-216 can have a similar effect on SPIB and whether they induce cellular effects similar to lenalidomide. […] In ABC DLBCL, the ETS inhibitor YK-4-279 and its clinical derivative TK-216 interfere with SPIB and helicases involved in RNA editing. Moreover, both compounds act similarly to lenalidomide inhibiting IRF4 and upregulating IRF7 and synergize with the IMID in both ABC DLBCL and MCL.

IRF7 = test: Protein levels in cells; assay type: cell-based; conditions: similarly to lenalidomide
Excerpt: as §4

Compound: O=C(CC1(O)C(=O)Nc2c(Cl)ccc(Cl)c21)c1ccc(C2CC2)cc1 (stereo not shown) [TK216, 4,7-Dichloro-3-(2-(4-cyclopropylphenyl)-2-oxoethyl)-3-hydroxyindolin-2-one]
- EC50 (EWS-FLI1): < 100 nM
- binding between EWS-FLI1 and RNA helicase A [1]: blocked the binding
- IC50 (HL-60): 363 nM
- IC50 (ML-2): 291 nM
- IC50 (MOLM-13): 228 nM
- IC50 (MOLM-16): 129 nM
- IC50 (THP-1): 152 nM
- IC50 (HBL-1): 304 nM
- IC50 (U2932): 127 nM
- IC50 (OCI-Ly18): 95 nM
- IC50 (OCI-Ly19): 106 nM
- apoptosis (cleaved-Caspase 3) (DLBCL cell lines): induced apoptosis
- IC50 (56 lymphoma cell lines): 449 nM
- cell cycle and apoptosis [2]: time-dependent apoptosis was preceded by a G2/M arrest
- reduction in tumor volume at D11 (TMD8 cells xenografts; D11, P<0.01 vs control group): four-times
- tumor growth compared with control group (TMD8 cells xenografts; n=9): reduction in tumor growth
- combination of TK-216 and lenalidomide (two MCL cell lines): synergism
- IRF4 protein in cells (IRF4): decreased IRF4
- IRF7 protein in cells (IRF7): upregulated IRF7
